Reference: ChEMBL document CHEMBL5150075 (J Med Chem, 2022)
pIC50: −log10 of the molar value. Calls of active or inactive are those of the source. No cut-off for these calls is given here.

Experiments:
DU-145 [1] = assay: Induction of apoptosis in human DU-145 cells assessed as dead cells at 0.3 uM incubated for 48 hrs by Annexin V-FITC/PI staining based flow cytometry analysis (reference value: 1.05%); type: functional
[2] = Toxicity in specific pathogen-free Kunming mouse assessed as pathological changes in colon tissues at 10 mg/kg, po administered once daily and measured after 7 days by hematoxylin and eosin staining based analysis; type: organism-based; settings: in vivo, 168 h, time 7 day
Tubulin (Homo sapiens) [3] = target: T1, Tubulin (Homo sapiens) (UniProt P68371+Q9H4B7+P0DPH7+P68366+Q13509+Q71U36+P04350+Q3ZCM7+P07437+P68363+Q9BQE3+Q6PEY2+Q13885+Q9BVA1+Q9BUF5); assay: Disruption of microtubule network in human DU-145 cells assessed as reduction in acetyl-alpha tubulin expression by Western blot analysis; type: cell-based; settings: dose 0.03-0.3 µM
HGC-27 = assay: Antiproliferative activity against human HGC-27 cells assessed as inhibition of cell growth incubated for 72 hrs by MTT assay; type: functional, cell-based; settings: HGC-27, 72 h
A549 [4] = assay: Antitumor activity against paclitaxel-resistant human A549 cells xenografted in BALB/c nude mouse assessed as tumor growth inhibition at 20 mg/kg, po administered once daily and measured twice a week relative to control; type: functional; settings: read-out: TGI
[5] = Toxicity in specific pathogen-free Kunming mouse assessed as reduction in body weight at 10 mg/kg, po administered once daily and measured for 7 days; type: organism-based; settings: in vivo, 168 h, time 7 day
DU-145 [6] = assay: Induction of apoptosis in human DU-145 cells assessed as late apoptotic cells at 0.3 uM incubated for 48 hrs by Annexin V-FITC/PI staining based flow cytometry analysis (reference value: 2.05%); type: functional
[7] = Tmax in Kunming mouse at 20 mg/kg, po by LC-MS/MS analysis; type: ADME, organism-based; settings: in vivo
[8] = target: Voltage-gated inwardly rectifying potassium channel KCNH2 (Homo sapiens, UniProt Q12809); assay: Inhibition of hERG expressed in CHO cells by whole cell patch clamp method; type: toxicity, cell-based
[9] = Stability in mouse liver microsomes assessed as half life incubated in presence of NADPH by LC-MS/MS analysis; type: ADME, Microsome
Tubulin (Homo sapiens) [10] = target: T1, Tubulin (Homo sapiens); assay: Inhibition of tubulin polymerization in human DU-145 cells assessed as inhibition of tubulin assembly at 0.1 uM incubated for 16 hrs by Hoechst staining based confocal microscopy analysis; type: cell-based
[11] = Toxicity in specific pathogen-free Kunming mouse assessed as pathological changes in kidney at 10 mg/kg, po administered once daily and measured after 7 days by hematoxylin and eosin staining based analysis; type: organism-based; settings: in vivo, 168 h, time 7 day
A549 [12] = assay: Antiproliferative activity against paclitaxel-resistant human A549 cells assessed as inhibition of cell growth incubated for 72 hrs by MTT assay; type: functional, cell-based; settings: A549, 72 h
[13] = Stability in monkey liver microsomes assessed as half life incubated in presence of NADPH by LC-MS/MS analysis; type: ADME, Macaca mulatta, Microsome; settings: rhesus monkey
NCI-H1299 = assay: Antitumor activity against human NCI-H1299 cells xenografted in BALB/c nude mouse assessed as suppression of tumor growth at 10 mg/kg, po administered once daily and measured twice a week relative to control; type: functional
SW1990 = assay: Antiproliferative activity against human SW1990 cells assessed as inhibition of cell growth incubated for 72 hrs by MTT assay; type: functional, cell-based; settings: SW1990, 72 h
DU-145 [14] = assay: Induction of apoptosis in human DU-145 cells assessed as early apoptotic cells at 0.1 uM incubated for 48 hrs by Annexin V-FITC/PI staining based flow cytometry analysis (reference value: 1.97%); type: functional
[15] = target: Sodium channel protein type 5 subunit alpha (Homo sapiens, UniProt Q14524); assay: Inhibition of human Nav1.5 expressed in CHO cells by manual patch clamp method; type: toxicity, cell-based
Tubulin (Homo sapiens) [16] = target: T1, Tubulin (Homo sapiens); assay: Disruption of microtubule network in human DU-145 cells assessed as cell shrinkage at 0.1 uM incubated for 16 hrs by Hoechst staining based confocal microscopy analysis
DU-145 [17] = assay: Induction of apoptosis in human DU-145 cells assessed as late apoptotic cells at 0.03 uM incubated for 48 hrs by Annexin V-FITC/PI staining based flow cytometry analysis (reference value: 2.05%); type: functional
[18] = Mutagenicity in Salmonella typhimurium TA-1535 at 0.5 to 500 ug per plate incubated for 72 hrs in presence or absence of S9 fraction by Ames test; type: toxicity, Salmonella enterica subsp. enterica serovar Typhimurium; settings: in vivo, dose 0.5-500 µg
[19] = target: L-type calcium channel alpha-1c/beta-2/alpha2delta-1 (Homo sapiens, UniProt P54289+Q08289+Q13936); assay: Inhibition of human alpha1c/beta2a/alpha2delta1 Cav1.2 expressed in HEK293 cells assessed as effect on calcium flux by FLIPR analysis; type: toxicity, cell-based
DU-145 [20] = assay: Induction of apoptosis in human DU-145 cells assessed as increase in cleaved caspase 3 level at 0.003 to 0.3 uM incubated for 48 hrs by Western blot analysis; type: functional, cell-based; settings: dose 0.003-0.3 µM
Tubulin (Homo sapiens) [21] = target: T1, Tubulin (Homo sapiens); assay: Inhibition of [3H]colchicine binding to tubulin (unknown origin) at 1 uM incubated for 2 hrs by TopCount scintillation counting method relative to control; type: protein-complex assay
DU-145 [22] = assay: Induction of apoptosis in human DU-145 cells assessed as increase in cleaved PARP level at 0.003 to 0.3 uM incubated for 48 hrs by Western blot analysis; type: functional, cell-based; settings: dose 0.003-0.3 µM
Tubulin (Homo sapiens) [23] = target: T1, Tubulin (Homo sapiens); assay: Disruption of microtubule network in human DU-145 cells assessed as reduction in alpha tubulin expression by Western blot analysis; type: cell-based; settings: dose 0.03-0.3 µM
[24] = Toxicity in specific pathogen-free Kunming mouse assessed as pathological changes in liver at 10 mg/kg, po administered once daily and measured after 7 days by hematoxylin and eosin staining based analysis; type: organism-based; settings: in vivo, 168 h, time 7 day
NCI-H1437 = assay: Antiproliferative activity against human NCI-H1437 cells assessed as inhibition of cell growth incubated for 72 hrs by MTT assay; type: functional, cell-based; settings: NCI-H1437, 72 h
[25] = Cmax in Kunming mouse at 20 mg/kg, po by LC-MS/MS analysis; type: ADME, organism-based; set-up: dose 20 mg/kg, route po; settings: in vivo
DU-145 [26] = assay: Antitumor activity against human DU-145 cells xenografted in BALB/c nude mouse assessed as tumor growth inhibition at 10 mg/kg, po administered once daily and measured twice a week relative to control; type: functional; settings: read-out: TGI
DU-145 [27] = assay: Induction of apoptosis in human DU-145 cells assessed as live cells at 0.03 uM incubated for 48 hrs by Annexin V-FITC/PI staining based flow cytometry analysis (reference value: 94.94%); type: functional
B16-F10 = assay: Antiproliferative activity against mouse B16-F10 cells assessed as inhibition of cell growth incubated for 72 hrs by MTT assay; type: functional, cell-based; settings: B16-F10, 72 h
Bos taurus = species: Bos taurus; assay: Inhibition of bovine brain tubulin polymerization measured every 30 secs by absorbance based analysis; settings: dose 1-10 µM, time 30.0 sec, DDE = dose-dependent effect
MDA-MB-231 = assay: cells; settings: Homo sapiens, MDA-MB-231, 72 h
[28] = Resistance index, ratio of IC50 for antiproliferative activity against paclitaxel-resistant human A549 cells to IC50 for antiproliferative activity against human A549 cells; type: functional
DU-145 [29] = assay: Induction of G2/M phase cell cycle arrest in human DU-145 cells assessed as increase in histone H3 phosphorylation at Ser10 residue at 0.03 to 0.3 uM measured after 12 hrs by Western blot analysis; type: functional, cell-based; settings: dose 0.03-0.3 µM

Sequence of L-type calcium channel alpha-1c/beta-2/alpha2delta-1 (P54289 25-956 limits assumed): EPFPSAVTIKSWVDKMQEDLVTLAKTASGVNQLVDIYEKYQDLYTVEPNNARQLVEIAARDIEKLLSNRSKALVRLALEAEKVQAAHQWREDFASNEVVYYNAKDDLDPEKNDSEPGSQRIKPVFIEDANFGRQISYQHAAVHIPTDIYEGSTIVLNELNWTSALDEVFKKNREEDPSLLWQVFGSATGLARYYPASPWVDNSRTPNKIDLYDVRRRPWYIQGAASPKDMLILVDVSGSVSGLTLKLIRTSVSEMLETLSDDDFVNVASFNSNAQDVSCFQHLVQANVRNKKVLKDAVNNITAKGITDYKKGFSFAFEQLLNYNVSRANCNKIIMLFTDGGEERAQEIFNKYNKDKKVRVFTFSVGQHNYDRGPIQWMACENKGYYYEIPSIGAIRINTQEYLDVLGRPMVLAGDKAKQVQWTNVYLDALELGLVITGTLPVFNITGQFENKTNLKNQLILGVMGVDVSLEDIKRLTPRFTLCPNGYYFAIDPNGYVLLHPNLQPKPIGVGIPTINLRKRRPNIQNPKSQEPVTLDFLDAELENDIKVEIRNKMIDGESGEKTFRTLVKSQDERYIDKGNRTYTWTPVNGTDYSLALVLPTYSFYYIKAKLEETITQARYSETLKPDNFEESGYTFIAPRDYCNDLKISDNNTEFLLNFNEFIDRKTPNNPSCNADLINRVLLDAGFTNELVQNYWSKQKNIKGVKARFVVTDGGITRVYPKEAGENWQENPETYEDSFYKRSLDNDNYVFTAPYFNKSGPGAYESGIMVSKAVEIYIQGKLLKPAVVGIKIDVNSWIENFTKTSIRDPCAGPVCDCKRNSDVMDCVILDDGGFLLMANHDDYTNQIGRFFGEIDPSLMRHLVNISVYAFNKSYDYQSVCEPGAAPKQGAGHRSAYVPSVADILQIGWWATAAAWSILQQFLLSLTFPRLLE
Sequence of L-type calcium channel alpha-1c/beta-2/alpha2delta-1 (P54289 957-1103 limits assumed): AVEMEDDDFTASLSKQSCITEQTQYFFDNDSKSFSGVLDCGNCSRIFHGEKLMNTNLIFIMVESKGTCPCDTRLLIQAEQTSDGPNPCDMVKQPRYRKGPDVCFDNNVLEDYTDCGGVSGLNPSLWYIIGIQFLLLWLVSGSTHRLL
Sequence of L-type calcium channel alpha-1c/beta-2/alpha2delta-1 (Q08289 whole entry): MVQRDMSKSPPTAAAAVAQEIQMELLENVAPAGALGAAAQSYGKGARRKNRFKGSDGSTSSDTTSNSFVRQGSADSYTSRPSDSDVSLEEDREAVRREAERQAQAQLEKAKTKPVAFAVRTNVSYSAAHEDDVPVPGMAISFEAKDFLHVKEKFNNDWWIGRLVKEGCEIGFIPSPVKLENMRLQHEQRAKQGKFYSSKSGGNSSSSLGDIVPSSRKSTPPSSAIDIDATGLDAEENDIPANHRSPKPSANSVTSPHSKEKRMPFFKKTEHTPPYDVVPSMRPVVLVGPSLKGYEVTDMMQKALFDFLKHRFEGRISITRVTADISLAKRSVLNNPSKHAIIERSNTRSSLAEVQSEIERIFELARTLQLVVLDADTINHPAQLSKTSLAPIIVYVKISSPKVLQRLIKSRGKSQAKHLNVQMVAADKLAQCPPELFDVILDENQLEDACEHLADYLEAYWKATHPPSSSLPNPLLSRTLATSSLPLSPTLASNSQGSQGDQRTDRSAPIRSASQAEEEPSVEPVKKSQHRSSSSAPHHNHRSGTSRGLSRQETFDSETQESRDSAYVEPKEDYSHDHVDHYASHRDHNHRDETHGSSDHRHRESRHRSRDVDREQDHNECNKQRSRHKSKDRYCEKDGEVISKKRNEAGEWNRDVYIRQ
Sequence of L-type calcium channel alpha-1c/beta-2/alpha2delta-1 (Q13936 whole entry): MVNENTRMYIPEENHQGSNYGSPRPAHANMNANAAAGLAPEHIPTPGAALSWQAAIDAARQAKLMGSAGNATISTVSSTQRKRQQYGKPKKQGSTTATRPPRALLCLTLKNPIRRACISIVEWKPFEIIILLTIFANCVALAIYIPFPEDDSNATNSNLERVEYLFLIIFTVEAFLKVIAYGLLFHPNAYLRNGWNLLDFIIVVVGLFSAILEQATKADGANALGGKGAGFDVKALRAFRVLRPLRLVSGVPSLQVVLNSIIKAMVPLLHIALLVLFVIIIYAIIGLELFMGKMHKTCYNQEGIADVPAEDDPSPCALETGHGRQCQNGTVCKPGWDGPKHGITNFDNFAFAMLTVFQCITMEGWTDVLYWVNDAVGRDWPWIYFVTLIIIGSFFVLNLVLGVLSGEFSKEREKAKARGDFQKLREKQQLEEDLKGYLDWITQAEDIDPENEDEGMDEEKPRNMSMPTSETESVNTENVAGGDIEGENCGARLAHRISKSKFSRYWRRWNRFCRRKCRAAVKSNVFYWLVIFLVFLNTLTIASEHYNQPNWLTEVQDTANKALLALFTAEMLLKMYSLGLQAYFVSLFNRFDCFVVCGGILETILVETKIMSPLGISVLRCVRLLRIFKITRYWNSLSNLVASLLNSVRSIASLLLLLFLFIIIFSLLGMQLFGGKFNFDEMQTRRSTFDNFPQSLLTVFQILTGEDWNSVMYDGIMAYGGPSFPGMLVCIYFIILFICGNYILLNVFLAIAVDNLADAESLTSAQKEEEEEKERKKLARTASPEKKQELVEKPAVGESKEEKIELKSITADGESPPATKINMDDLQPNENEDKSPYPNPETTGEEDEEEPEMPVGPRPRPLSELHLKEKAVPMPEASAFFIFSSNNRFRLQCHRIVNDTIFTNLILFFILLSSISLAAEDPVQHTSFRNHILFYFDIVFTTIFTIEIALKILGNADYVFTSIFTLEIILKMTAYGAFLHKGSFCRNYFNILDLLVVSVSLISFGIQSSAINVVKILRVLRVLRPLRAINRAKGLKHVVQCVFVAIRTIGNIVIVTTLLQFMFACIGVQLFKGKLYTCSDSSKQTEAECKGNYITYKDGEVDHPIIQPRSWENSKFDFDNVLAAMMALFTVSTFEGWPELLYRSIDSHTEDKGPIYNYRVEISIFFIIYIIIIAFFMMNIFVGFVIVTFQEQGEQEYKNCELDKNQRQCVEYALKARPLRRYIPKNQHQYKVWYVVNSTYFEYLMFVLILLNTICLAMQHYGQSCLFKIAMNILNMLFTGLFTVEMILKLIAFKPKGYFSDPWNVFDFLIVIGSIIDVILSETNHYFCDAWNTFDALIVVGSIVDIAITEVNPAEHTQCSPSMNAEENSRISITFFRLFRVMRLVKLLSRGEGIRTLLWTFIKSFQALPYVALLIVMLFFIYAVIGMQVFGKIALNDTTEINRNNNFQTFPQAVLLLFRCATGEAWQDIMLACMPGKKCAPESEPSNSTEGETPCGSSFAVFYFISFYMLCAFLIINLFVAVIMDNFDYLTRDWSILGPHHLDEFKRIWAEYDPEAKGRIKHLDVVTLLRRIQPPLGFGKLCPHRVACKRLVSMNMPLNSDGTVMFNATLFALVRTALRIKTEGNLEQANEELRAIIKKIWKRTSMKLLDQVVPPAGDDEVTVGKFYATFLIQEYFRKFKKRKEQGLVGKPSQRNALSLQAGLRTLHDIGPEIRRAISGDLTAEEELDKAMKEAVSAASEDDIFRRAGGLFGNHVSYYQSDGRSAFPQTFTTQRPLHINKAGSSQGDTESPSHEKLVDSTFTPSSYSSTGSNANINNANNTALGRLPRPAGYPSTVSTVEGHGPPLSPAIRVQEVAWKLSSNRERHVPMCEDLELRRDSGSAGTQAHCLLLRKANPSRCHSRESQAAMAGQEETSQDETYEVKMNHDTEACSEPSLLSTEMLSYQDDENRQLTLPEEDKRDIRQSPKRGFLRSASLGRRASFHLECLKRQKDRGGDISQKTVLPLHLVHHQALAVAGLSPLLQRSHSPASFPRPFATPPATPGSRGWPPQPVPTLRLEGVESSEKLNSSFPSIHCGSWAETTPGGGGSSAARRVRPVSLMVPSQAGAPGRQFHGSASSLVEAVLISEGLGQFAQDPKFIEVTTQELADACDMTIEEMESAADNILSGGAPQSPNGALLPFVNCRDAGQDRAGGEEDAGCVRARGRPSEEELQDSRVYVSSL
Sequence of Voltage-gated inwardly rectifying potassium channel KCNH2 (Q12809 whole entry): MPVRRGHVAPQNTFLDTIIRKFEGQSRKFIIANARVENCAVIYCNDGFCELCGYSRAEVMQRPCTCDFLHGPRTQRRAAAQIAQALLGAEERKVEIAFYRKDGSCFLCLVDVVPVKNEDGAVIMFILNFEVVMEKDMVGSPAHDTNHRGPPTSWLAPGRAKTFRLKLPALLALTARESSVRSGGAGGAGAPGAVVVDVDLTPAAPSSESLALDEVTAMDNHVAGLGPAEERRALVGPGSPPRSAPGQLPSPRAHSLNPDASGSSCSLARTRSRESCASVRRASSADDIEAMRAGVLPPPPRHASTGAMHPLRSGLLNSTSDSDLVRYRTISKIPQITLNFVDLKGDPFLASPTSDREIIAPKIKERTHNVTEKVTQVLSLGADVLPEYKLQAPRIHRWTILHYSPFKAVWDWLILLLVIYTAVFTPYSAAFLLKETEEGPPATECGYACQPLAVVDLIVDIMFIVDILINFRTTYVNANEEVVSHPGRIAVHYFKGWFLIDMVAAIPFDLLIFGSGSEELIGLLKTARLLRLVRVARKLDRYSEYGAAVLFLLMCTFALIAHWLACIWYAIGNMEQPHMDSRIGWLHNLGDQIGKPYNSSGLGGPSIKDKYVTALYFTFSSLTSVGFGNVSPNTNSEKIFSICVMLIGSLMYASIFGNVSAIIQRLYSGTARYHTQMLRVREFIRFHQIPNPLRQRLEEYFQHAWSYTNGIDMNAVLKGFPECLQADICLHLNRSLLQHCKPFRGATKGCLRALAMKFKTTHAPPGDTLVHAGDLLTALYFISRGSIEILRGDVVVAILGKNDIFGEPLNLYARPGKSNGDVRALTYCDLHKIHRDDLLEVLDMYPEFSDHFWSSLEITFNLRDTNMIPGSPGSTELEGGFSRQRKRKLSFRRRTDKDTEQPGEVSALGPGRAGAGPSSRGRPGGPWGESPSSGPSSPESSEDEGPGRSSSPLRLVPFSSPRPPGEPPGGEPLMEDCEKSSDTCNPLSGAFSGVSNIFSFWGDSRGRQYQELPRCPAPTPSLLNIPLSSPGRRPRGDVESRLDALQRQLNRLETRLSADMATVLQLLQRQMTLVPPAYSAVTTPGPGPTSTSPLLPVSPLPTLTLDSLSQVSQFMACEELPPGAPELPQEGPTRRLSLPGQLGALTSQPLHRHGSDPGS

For `Cc1ccc(S(=O)(=O)Nc2cc(C(=O)NCc3ccc(C)nc3)ccc2C)cc1`, the Activity (DU-145 [1]) was 5.51%, the Activity [2] was “Non-Toxic” and the Activity (Tubulin (Homo sapiens) [3]) was “Active”. For the same compound, the pIC50 (HGC-27) was 8.22, the inhibition in vivo at 20 mg/kg (A549 [4]) was 74.8% and the Activity [5] was “Non-Toxic”. It also gave an Activity (DU-145 [6]) of 30.32%, a Tmax [7] of 4.98 min and a pIC50 [8] of less than 5.00. For the same compound, the half-life [9] was 26 min, the inhibition (Tubulin (Homo sapiens) [10]) was “Active” and the Activity [11] was “Non-Toxic”. For the same compound, the pIC50 (A549 [12]) was 7.52, the half-life [13] was 95 min and the Activity (NCI-H1299) was 48.8%. The pIC50 (SW1990) was 7.82, the Activity (DU-145 [14]) was 24.79% and the pIC50 [15] was less than 4.52. For the same compound, the Activity (Tubulin (Homo sapiens) [16]) was “Active”, the Activity (DU-145 [17]) was 9.5% and the Activity [18] was “Non-Toxic”. For the same compound, the pIC50 [19] was less than 4.52, the Activity (DU-145 [20]) was “Active” and the inhibition (Tubulin (Homo sapiens) [21]) was 75%. The Activity (DU-145 [22]) was “Active”, the Activity (Tubulin (Homo sapiens) [23]) was “Active” and the Activity [24] was “Non-Toxic”. The pIC50 (NCI-H1437) was 8.70, the Cmax [25] was 2740 ng/mL and the inhibition in vivo at 10 mg/kg (DU-145 [26]) was 62.8%. For the same compound, the Activity (DU-145 [27]) was 73.88%, the pIC50 (B16-F10) was 8.70 and the inhibition (Bos taurus) was “Dde”. The pIC50 (MDA-MB-231) was 8.05, the “Ratio IC50” value [28] was 1.2 and the Activity (DU-145 [29]) was “Active”.
